Test results from ChEMBL document CHEMBL1201862, “PubChem BioAssay data set” (2004).
Calls of active or inactive are those of the source.

Tests used:
HEK293 [1] = experiment: HEK cell cytotoxicity by LDH release, dose response, cytotoxicity control for IDE activator project, fluorescence, HEK cells (AID 588440); assay type: functional, cell-based; conditions: Homo sapiens;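 further: cytotoxicity by LDH release measuring loss of membrane integrity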
Insulin-degrading enzyme [2] = biological target: T1, Insulin-degrading enzyme (Homo sapiens, UniProt P14735); experiment: activators of recombinant IDE enzyme, dose response, counter-screen for IDE activator project, biochemical, fluorescence polarization (AID 588681)
T1 sequence (P14735 whole entry): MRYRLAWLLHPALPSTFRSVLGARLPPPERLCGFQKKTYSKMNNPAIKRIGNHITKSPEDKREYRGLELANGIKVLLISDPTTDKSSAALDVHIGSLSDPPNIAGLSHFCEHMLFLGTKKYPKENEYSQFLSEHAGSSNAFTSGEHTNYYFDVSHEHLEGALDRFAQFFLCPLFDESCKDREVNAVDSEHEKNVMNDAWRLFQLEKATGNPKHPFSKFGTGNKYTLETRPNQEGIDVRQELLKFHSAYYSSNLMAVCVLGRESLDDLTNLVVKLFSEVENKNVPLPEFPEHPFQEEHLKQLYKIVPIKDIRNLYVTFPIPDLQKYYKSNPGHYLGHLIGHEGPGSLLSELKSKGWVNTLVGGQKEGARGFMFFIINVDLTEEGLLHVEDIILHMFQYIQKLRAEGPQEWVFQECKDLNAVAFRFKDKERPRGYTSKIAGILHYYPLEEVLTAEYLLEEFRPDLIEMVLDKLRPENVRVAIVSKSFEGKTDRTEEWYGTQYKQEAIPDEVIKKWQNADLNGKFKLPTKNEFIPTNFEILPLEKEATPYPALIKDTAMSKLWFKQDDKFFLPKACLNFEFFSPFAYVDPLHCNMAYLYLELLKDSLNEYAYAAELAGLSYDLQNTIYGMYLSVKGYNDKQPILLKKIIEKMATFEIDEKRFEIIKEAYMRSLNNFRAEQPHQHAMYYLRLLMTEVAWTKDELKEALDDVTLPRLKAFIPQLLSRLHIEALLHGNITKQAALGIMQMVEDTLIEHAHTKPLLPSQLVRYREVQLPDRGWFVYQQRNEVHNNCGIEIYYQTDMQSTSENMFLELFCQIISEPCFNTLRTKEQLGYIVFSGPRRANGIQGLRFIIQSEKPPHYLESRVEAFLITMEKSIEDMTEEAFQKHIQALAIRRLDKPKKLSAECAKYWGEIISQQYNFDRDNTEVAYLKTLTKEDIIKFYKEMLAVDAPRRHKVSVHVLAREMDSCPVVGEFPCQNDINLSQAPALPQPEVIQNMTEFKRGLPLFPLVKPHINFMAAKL

Insulin-degrading enzyme [3] = biological target: T1, Insulin-degrading enzyme; experiment: activators of endogenous IDE in HEK cells, dose response, cell-based, fluorescence polarization (AID 588439); assay type: functional
HEK293 [4] = experiment: optical interference in Abeta FP readout, dose response, artefact control for IDE activator project, biochemical, fluorescence polarization (AID 588442); assay type: functional, cell-based; conditions: Homo sapiens
[5] = biological target: T2, Ubiquitin-conjugating enzyme E2 N (Homo sapiens, UniProt P61088); assay type: functional;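 further: Dose-response confirmation in a TR-FRET assay detecting UBC13-driven polyubiquitin chain formation, inhibition measured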
T2 sequence (P61088 whole entry): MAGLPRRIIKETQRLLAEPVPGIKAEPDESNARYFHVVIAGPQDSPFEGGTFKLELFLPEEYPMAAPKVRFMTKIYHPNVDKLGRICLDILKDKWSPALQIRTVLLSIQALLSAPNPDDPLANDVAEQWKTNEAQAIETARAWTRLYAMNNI

INS1 = experiment: beta cell apoptosis inhibitors, cytokine rescue, dose response, luminescence, retest (AID 449756); assay type: functional, cell-based; conditions: Rattus norvegicus;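 further: cell death triggered by IL-1 beta plus TNF-alpha plus IFN-gamma mixture; protective hits raise ATP signal compared with cytokine alone wells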
Streptococcus = experiment: Group A Streptococcus viability loss, dose response, counter-screen for streptokinase expression inhibitor project, luminescence, BacTiterGlo (AID 1915); assay type: functional, organism-based;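 further: potency for reduction of bacterial viability or growth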
[6] = system: Streptococcus sp. 'group A'; experiment: growth inhibition of control SK(-) GAS strain, dose response, counter-screen for streptokinase expression inhibitor project, luminescence, kanamycin, BacTiterGlo, confirmation (AID 1900); assay type: functional, organism-based
Streptokinase A = biological target: T3, Streptokinase A (Streptococcus pyogenes serotype M1, UniProt P10520); experiment: S. pyogenes streptokinase expression inhibitors, potency, dose response, plasminogen activation absorbance, OD405 (AID 1914); assay type: functional, Streptococcus pyogenes M1 GAS;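 further: secreted streptokinase activity via plasminogen activation per viability signal from cell pellet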
T3 sequence (P10520 whole entry): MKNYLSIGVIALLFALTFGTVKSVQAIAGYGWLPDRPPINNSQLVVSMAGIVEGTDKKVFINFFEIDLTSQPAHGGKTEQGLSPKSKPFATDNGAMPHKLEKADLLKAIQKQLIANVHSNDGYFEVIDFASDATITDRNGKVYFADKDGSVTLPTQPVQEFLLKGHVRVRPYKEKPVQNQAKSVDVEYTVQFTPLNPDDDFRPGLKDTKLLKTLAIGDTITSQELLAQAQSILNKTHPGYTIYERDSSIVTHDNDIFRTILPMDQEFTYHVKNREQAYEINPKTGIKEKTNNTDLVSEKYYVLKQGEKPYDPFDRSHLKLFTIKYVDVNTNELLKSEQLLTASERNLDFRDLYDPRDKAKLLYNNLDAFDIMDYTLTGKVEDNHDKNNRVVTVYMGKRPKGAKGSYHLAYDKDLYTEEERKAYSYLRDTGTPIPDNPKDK

[7] = biological target: T4, Zinc finger protein mex-5 (Caenorhabditis elegans, UniProt Q9XUB2); experiment: MEX-5/TCR-2 RNA interaction inhibitors, dose response, biochemical, C. elegans, fluorescence polarization (AID 1960)
T4 sequence (Q9XUB2 whole entry): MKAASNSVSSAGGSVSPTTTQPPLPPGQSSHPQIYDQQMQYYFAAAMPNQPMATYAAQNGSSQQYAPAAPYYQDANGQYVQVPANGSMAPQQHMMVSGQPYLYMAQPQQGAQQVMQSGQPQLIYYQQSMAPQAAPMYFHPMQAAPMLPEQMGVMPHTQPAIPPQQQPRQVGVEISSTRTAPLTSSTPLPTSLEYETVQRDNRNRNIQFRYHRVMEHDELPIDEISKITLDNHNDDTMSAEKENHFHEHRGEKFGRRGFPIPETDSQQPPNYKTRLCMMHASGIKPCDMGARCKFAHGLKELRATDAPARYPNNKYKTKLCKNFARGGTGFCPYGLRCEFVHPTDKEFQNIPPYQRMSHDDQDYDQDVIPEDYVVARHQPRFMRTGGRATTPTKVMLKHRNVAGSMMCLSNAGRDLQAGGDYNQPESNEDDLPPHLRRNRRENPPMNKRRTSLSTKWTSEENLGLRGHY

[8] = biological target: T5, Endoribonuclease toxin MazF (Escherichia coli K-12, UniProt P0AE70); experiment: MazF toxin RNase activators, dose response, biochemical, fluorescence, single-stranded RNA substrate, uHTS hits (AID 588481); assay type: functional
T5 sequence (P0AE70 whole entry): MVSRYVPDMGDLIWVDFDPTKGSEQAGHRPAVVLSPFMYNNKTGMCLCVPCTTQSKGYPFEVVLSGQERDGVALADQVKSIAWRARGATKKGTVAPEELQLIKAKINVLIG

cells = assay type: functional
[9] = biological target: T5, Endoribonuclease toxin MazF; experiment: fluorescent RNA oligo signal without MazF, dose response, counter-screen for MazEF activator project, biochemical, fluorescence, single-stranded RNase substrate (AID 588502); assay type: functional
[10] = biological target: T6, RNA-binding protein pos-1 (Caenorhabditis elegans, UniProt G5EF15); experiment: inhibitors of POS-1/mex-3 RNA binding, dose response, biochemical, fluorescence polarization (AID 1964);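 further: purified POS-1 fused to maltose binding protein made in E. coli; potency of compounds blocking POS-1 binding to fluorescent RNA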
T6 sequence (G5EF15 whole entry): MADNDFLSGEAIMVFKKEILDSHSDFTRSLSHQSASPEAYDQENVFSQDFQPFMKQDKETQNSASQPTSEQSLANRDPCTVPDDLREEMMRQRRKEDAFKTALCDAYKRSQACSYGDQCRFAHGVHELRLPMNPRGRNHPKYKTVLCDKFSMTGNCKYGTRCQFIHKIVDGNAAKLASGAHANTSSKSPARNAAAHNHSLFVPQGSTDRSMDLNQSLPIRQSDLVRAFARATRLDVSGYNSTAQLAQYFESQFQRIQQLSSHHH

[11] = biological target: T7, DNA repair and recombination protein RAD54-like (Homo sapiens, UniProt Q92698); experiment: inhibitors of human RAD54 branch migration, confirmation, biochemical, fluorescence, cherry-picked samples, dose series (AID 651657); assay type: functional
T7 sequence (Q92698 whole entry): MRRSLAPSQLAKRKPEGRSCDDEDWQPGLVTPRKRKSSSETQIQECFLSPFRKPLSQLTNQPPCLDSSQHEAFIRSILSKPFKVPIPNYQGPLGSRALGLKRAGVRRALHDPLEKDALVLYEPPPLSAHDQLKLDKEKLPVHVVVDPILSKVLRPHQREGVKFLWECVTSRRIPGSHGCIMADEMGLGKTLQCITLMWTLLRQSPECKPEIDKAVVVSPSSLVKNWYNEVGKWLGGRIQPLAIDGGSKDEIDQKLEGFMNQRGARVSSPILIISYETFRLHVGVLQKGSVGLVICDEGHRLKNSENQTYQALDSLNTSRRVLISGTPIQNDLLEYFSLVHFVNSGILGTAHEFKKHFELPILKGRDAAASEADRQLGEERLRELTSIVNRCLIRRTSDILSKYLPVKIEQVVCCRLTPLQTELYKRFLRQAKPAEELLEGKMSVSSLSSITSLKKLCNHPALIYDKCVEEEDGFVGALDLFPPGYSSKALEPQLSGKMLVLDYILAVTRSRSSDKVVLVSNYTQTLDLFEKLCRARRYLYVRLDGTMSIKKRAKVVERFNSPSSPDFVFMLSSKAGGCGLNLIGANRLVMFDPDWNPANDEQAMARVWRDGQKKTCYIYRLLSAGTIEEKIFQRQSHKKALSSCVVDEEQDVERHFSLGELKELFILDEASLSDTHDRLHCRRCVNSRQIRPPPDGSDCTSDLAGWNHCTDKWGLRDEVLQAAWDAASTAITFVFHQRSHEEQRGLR

[12] = biological target: T8, Histone-lysine N-methyltransferase NSD2 (Homo sapiens, UniProt O96028); assay type: biochemical
T8 sequence (O96028 whole entry): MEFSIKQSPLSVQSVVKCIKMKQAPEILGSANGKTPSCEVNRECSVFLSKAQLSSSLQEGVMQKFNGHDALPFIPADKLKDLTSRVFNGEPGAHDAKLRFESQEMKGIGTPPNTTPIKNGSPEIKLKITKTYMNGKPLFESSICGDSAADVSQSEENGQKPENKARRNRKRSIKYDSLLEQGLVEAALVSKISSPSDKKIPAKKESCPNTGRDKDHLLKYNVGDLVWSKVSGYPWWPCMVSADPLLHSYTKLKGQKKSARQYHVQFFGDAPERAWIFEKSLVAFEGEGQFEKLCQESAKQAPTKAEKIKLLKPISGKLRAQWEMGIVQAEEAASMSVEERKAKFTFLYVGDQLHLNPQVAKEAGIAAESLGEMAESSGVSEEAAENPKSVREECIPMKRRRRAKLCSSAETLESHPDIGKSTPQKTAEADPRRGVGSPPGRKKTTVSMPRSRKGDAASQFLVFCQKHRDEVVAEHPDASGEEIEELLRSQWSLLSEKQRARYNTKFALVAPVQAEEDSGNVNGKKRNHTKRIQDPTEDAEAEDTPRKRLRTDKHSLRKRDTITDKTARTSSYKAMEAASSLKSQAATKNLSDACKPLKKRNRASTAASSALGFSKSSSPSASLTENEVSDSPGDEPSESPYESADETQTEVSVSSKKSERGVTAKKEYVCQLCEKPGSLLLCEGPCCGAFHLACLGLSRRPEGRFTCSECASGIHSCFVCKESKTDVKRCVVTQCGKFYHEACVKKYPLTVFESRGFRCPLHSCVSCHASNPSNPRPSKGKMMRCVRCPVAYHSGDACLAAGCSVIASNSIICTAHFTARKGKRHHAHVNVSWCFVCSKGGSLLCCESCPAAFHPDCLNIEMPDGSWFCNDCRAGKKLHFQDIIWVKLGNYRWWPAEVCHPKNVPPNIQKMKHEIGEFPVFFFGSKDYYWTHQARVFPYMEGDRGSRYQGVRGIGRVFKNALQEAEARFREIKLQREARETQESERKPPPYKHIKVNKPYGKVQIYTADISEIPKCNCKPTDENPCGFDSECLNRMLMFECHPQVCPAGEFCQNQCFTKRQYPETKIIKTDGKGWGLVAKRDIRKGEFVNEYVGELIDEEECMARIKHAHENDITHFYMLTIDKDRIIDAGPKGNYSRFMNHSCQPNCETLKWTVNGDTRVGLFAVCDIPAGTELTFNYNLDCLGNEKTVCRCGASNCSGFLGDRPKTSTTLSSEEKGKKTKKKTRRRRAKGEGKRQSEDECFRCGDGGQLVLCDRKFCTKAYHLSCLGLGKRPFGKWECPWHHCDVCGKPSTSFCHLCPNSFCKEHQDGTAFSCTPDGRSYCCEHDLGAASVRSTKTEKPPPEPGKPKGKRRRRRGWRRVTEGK

Row | Structure (SMILES) | IC50 (HEK293 [1]) | EC50 (Insulin-degrading enzyme [2]) | EC50 (Insulin-degrading enzyme [3]) | EC50 (HEK293 [4]) | other results
1 | O=C(c1ccccc1)N1CCN(c2ccc([N+](=O)[O-])c(NCc3cccnc3)c2)CC1 | > 89.2 µM (inactive) | > 54.7 µM (inactive) | > 54.7 µM (inactive) | > 54.7 µM (inactive) | –
2 | COC(=O)C1=C(C)N(Cc2ccccc2)C(NCc2cccc(C(F)(F)F)c2)=N[C@H]1c1cccc(C(F)(F)F)c1 | 13.6 µM (inactive) | > 54.7 µM (inactive) | > 6.08 µM (active) | > 54.7 µM (inactive) | IC50 [5]: > 20 µM (inactive); AC50 (INS1): 5.53 µM (active)
3 | NC(=O)c1ccc(NC(=O)COC(=O)c2c3c(nc4ccccc24)/C(=C\c2ccc4c(c2)OCO4)CCC3)cc1 | > 89.2 µM (inactive) | > 54.7 µM (inactive) | > 54.7 µM (inactive) | > 54.7 µM (inactive) | EC50 (Streptococcus): 140 µM (active); EC50 [6]: 13.6 µM (active); EC50 (Streptokinase A): > 150 µM (not active)
4 | CCc1cc(Cn2nc(C(=O)O)cc2-c2ccccc2)on1 | > 89.3 µM (inactive) | > 54.7 µM (inactive) | > 54.7 µM (inactive) | > 54.7 µM (inactive) | –
5 | O=[N+]([O-])c1ccc(Nc2ccccc2O)c2nonc12 | – | – | – | – | EC50 [7]: 28.2 µM (active); EC50 [8]: > 99 µM (inactive); IC50 (cells): 5.81 µM (active); EC50 [9]: > 99 µM (inactive); EC50 [10]: 24.4 µM (active)
6 | Nc1ccc(C2(c3ccc(N)cc3)CN3CCC2CC3)cc1 | – | – | – | – | AC50 [11]: 25.8 µM (active); AC50 [12]: 4.41 µM (active)
7 | O=[N+]([O-])c1ccc(S(=O)(=O)N[N-][C+]2CCCCC2)cc1 | – | – | – | – | EC50 [8]: > 99 µM (inactive); EC50 [9]: 7.03 µM (active)
